Laboratory results reported in patent US9963461B2, “Phillygenin ibuprofen ester, preparation method therefor, and application thereof” (priority 2014, dated 2018).
Marks after values point to notes of the source that are not given here.

How the values were obtained:
[1] = tested on: parainfluenza virus; assay: Impact of the drugs on the virus-induced cytopathy (MTT); type: cell-based; conditions: parainfluenza virus 100 TCID50, Vero cells, about the maximal non-cytotoxic concentration, 72 hours
[2] = tested on: Coxsackie virus A16 (CoxA16); assay: as above; type: cell-based; conditions: CoxA16 100 TCID50, Vero cells, about the maximal non-cytotoxic concentration, 72 hours
[3] = tested on: Herpes Simplex Virus type I (HSV-1); assay: as above; type: cell-based; conditions: HSV-I 100 TCID50, Vero cells, about the maximal non-cytotoxic concentration, 72 hours
[4] = tested on: Adenovirus (AdV); assay: as above; type: cell-based; conditions: ADV 100 TCID50, Vero cells, about the maximal non-cytotoxic concentration, 72 hours
[5] = tested on: sweat secretion of rat paw part; assay: Sweat secretion of rat paw part (coloring method); type: in vivo, Wistar rats; conditions: 300.0 mg/kg intragastric; for Animal number of sweat points of level +: + = sweat area below about 10%; for Animal number of sweat points of level ++: ++ = sweat area about 11-40%; for Animal number of sweat points of level +++: +++ = sweat area about 41-70%; for Animal number of sweat points of level ++++: ++++ = sweat area over 71%; for Animal number of sweat points of level −: − = no sweat point
From the text: This test was designed to observe the change of sweat secretion based on the mechanism that sweat gland is distributed on the rat paw pads, and iodine and starch can have purple reaction when encountered with sweat. In the test, 350 Wistar rats were selected, with equal male and female number, weighing 120-150 g. […] The rats were placed in a self-made rat fixation bag, with the double hind limbs exposed. The dirts on the right paw was gently scrubbed clean with the cotton swab dipped with anhydrous ethanol. Besides that subcutaneous injection was used for the pilocarpine solution, intragastric administration was used for all the other groups. […] When the test was complete, statistical process was carried out according to the rank-sum test with two-sample comparison, in order to compare the difference between the groups.

[6] = tested on: sweat gland epithelial cells at the rat toe part; assay: Sweat secretion of rat paw part (tissue morphology observation method); type: in vivo, Wistar rats; conditions: rat toe part; 300.0 mg/kg intragastric
From the text: This test was based on the mechanism that when rat sweat gland is excited, in addition to sweat secretion increase, the morphology of sweat gland epithelial cell is also changed. The number increase and expansion of empty cells of the sweat gland epithelial cells can be seen under the optical microscope. Such enlarged vacuole presents mitochondrial in sweat gland epithelial cells swelling, rupture, fusion and secretory vesicle enlargement under the electron microscope, and through the morphological observation of the sweat gland epithelial cell at the rat paw part, the secretory activity of the sweat gland can be known. In the test, 70 Wistar rats were selected, with equal male and female number, weighing 120-160 g. […] Besides that subcutaneous injection was used for the pilocarpine solution, intragastric administration was used for all the other groups.

[7] = tested on: rat toe swelling induced by carrageenan; assay: Rat toe swelling induced by carrageenan; type: in vivo, Wistar rats; conditions: 300 mg/kg sublingual intravenous injection
Method: The test groups were administered by sublingual intravenous injection. Before the test, capillary magnification measurement method was used to measure the normal volume of the right hind foot of the rats in each group. To avoid errors, the measurement location was fixed and the operation was made by one person both before and after the administration. The average value of the two measurements was taken as the normal volume of the right hind foot of the rats before administration. […] The difference between the groups was compared by inter-group t test processing through the difference percentage (swelling ratio) of the paw volume before and after the induced rat inflammation.

[8] = after coating B liquid for 1 minute
[9] = after coating B liquid for 5 minutes
[10] = after coating B liquid for 10 minutes
[11] = after coating B liquid for 15 minutes (Table 2-4)
[12] = after coating B liquid for 15 minutes (Table 2-5)

## CC(C)Cc1ccc(C(C)C(=O)O)cc1 (centres unmarked) [Ibuprofen]
[1]
  antiviral effective rate (ER %): 80.72** %
[2]
  antiviral effective rate (ER %): 50.04%
[3]
  antiviral effective rate (ER %): 84.30** %
[4]
  antiviral effective rate (ER %): 50.61%
[5]; [8]
  Animal number of sweat points of level +: 1
  Animal number of sweat points of level ++: 3
  Animal number of sweat points of level +++: 1
  Animal number of sweat points of level ++++: 5
  Animal number of sweat points of level −: 0
[5]; [9]
  Animal number of sweat points of level +: 2
  Animal number of sweat points of level ++: 1
  Animal number of sweat points of level +++: 2
  Animal number of sweat points of level ++++: 5
  Animal number of sweat points of level −: 0
[5]; [10]
  Animal number of sweat points of level +: 1
  Animal number of sweat points of level ++: 2
  Animal number of sweat points of level +++: 2
  Animal number of sweat points of level ++++: 5
  Animal number of sweat points of level −: 0
[5]; [11]
  Animal number of sweat points of level +: 1
  Animal number of sweat points of level ++: 2
  Animal number of sweat points of level +++: 2
  Animal number of sweat points of level ++++: 5
  Animal number of sweat points of level −: 0
[5]; [12]
  Animal number of sweat points of level +: 1
  Animal number of sweat points of level ++: 2
  Animal number of sweat points of level +++: 2
  Animal number of sweat points of level ++++: 5
  Animal number of sweat points of level −: 0
[6]
  Number of sweat glands of vacuole: 57
  Void fraction (%): 27.40*** %
[7]; 30 min
  Swelling ratio (%): 0.110 ± 0.119 %
[7]; 60 min
  Swelling ratio (%): 0.151 ± 0.172 %
[7]; 120 min
  Swelling ratio (%): 0.210 ± 0.178 %
[7]; 180 min
  Swelling ratio (%): 0.330 ± 0.337 %
[7]; 240 min
  Swelling ratio (%): 0.4600 ± 0.289 %
[7]; 300 min
  Swelling ratio (%): 0.681 ± 0.369%
[7]; 360 min
  Swelling ratio (%): 0.623 ± 0.338 %
